One data set deals with thymus. Nature of the data set: Systemic side effects: thymus weight. Format: in vivo, ddY male mice. The conditions noted are these: 2 mM in peanut oil, s.c., two times at 24 hour interval; Means ± S.E. How it is done:
Systemic side effects of the compound of the present invention were evaluated according to the following method.
Suspensions of the test compounds (2 mM) in peanut oil were subcutaneously injected into the back of ddY male mice (weight: about 30 gm), 10 mice consisting of a test group, two times, once a day at a 24 hour interval. After 24 hours from the last injection, the mice were sacrificed to extract the thymus and to weigh its weight. For the control group only peanut oil was administered. The results are shown in […]

Data set [1] deals with eosinophiles infiltration. In words: Anti-allergic activity: FMLP-induced eosinophiles infiltration in trachea. Format: in vivo, guinea pigs (male). The conditions noted are these: positive control; after 4 hours (so in the source). How it is done: Test Method of Anti-allergic Activity
To tracheas around the neck of guinea pigs (male; weight 200-300 gm) exposed under anesthesia with Nembutal (0.05 ml/animal, i.p.) were injected FMLP (10^-4 M), which is an inflammation-inducing compound, dissolved in 1% dimethylsulfoxide solution in physiological saline, individually o together with the test compound with a 26 guage needle. For the negative control, only dimethylsulfoxide was injected, and for the positive control betamethasone was administered. […] Eosinophiles infiltrated into the upper, middle, and lower parts of the trachea were counted by microscope. Numbers of eosinophiles found in tracheas to which the test compound was injected were compared with those to which FMLP was independently injected.

A further data set has as its system edema of rat auricle. Nature of the data set: Anti-inflammatory activity (1): croton oil-induced auricle edema. The conditions noted are these: 10^-3 M, 800 μl/auricle, 15 seconds, weighed after 6 hours, read-out: Edema inhibitory rate (%). Format: in vivo, Wistar male rats. On the procedure: Test Method of Anti-inflammatory Activity (1) […] Wistar male rats, age 5 weeks, each group consisting of 5, were served for the test. The test samples and an inflammation-inducingbase material (control) were infiltrated into circular […]) fixed onto specially prepared tweezers and the right auricles of the animals were put between the tweezers to apply the samples (800 μl/auricle) for 15 seconds at a constant pressure of 500 gw. After 6 hours, the both auricles were punched (.phi. 9 mm) and weighed. An edema inhibitory rate determined by the following equation was taken as an index of the anti-inflammatory activity of the steroid samples. Edema inhibitory rate (%)=100-Y/Z×100 wherein Y is the weight difference (mg) of the right auricle to which the sample drug was applied and the untreated left auricle, and Z is the weight difference (mg) of the right auricle of the rat to which the inflammation-inducing base material was applied and the untreated left auricle.

The subject of a further data set is granuloma. Nature of the data set: Anti-inflammatory activity (2): granuloma around embedded filter paper. It counts as in vivo, Wistar male rats. The note with it: 10^-2 M, 50 μl/paper, after 6 days; for inhibition at 10000 µM: Rattus norvegicus, 144 h, read-out: Granulating Inhibitory Rate (%). From the text:
Test Method of Anti-inflammatory Activity (2) Wistar male rats, age 5 weeks, each group consisting of 5-8 rats, were served for the test. […] The paper was embedded into the right back of the rats. Into the left back was embedded an untreated antibiotic test filter paper. After 6 days, the animals were sacrificed by bleeding and the backs were incised to extract each granuloma formed around the filter. The granuloma was dried and weighed. To the right backs of the control group antibiotic test filter papers infiltrated with 50 μl/paper of ethanol and dried were embedded.

Data set [2] in a line: Acute toxicity (oral administration). The arrangement: species or system ICR mice (male). The note with it: mouse, in vivo, 14 days after administration, read-out: Viability (%). How it is done:
Acute toxicity (oral administration) of the compound of the present invention was evaluated according to the following method. […]

These results are taken from patent publication US5116829A, “Steroid compounds” (Kao Corporation, priority 1990, dated 1992).

Like-named read-outs stand apart in the source and are kept apart here.

Regarding `C[C@H]1C[C@H]2[C@@H]3CCC4=CC(=O)C=C[C@]4(C)[C@@]3(F)[C@@H](O)C[C@]2(C)[C@@]1(O)C(=O)CO` [Betamethasone, betamethasone], the “Thymus weight/10 gm body weight” value with thymus came to 15.4 ± 1.4 mg. Besides, the “eosinophiles infiltration inhibitory effect” value in data set [1] is listed as “only a small effect”.

Consider `C[C@]12CCC(=O)C=C1CC[C@@H]1[C@@H]2[C@@H](O)C[C@@]2(C)[C@H]1CC[C@]2(O)C(=O)CO` [Hydrocortisone, hydrocortisone, reference compound], for which the “Thymus weight/10 gm body weight” value with thymus is reported as 20.8 ± 2.1 mg.

Take `CSCCC(NC=O)C(=O)SCC(=O)[C@@]1(O)[C@H](C)C[C@H]2[C@@H]3CC(F)C4=CC(=O)C=C[C@]4(C)[C@@]3(F)[C@H](O)C[C@@]21C` (stereo partly drawn) [Compound No. 5, 6,9-Difluoro-21-[2-(formylamino)-4-methylthio-1-oxobutylthio]-11α,17-dihydroxy-16α-methylpregna-1,4-diene-3,20-dione]: the inhibition at 1000 µM with edema of rat auricle was 74%.

Regarding `CSCC[C@H](NC=O)C(=O)SCC(=O)[C@@]1(O)[C@@H](C)C[C@H]2[C@@H]3CCC4=CC(=O)C=C[C@]4(C)[C@@]3(F)[C@@H](O)C[C@@]21C` [Compound No. 1, 9-Fluoro-21-[2-(formylamino)-4-methylthio-1-oxobutylthio]-11β,17-dihydroxy-16β-methylpregna-1,4-diene-3,20-dione], the “Dry weight of ganuloma” value in the data set on granuloma came to 10.7 mg. Moreover, in the data set on granuloma, the inhibition at 10000 µM came to 47.7%. The inhibition at 1000 µM in the data set with edema of rat auricle worked out at 44%. For the same molecule, the survival at 336 h in data set [2] (dose 1.7 (mg/kg)), in data set [2] (dose 3.3 (mg/kg)) and in data set [2] (dose 5 (mg/kg)) was 100% each time. In the data set on thymus, the “Thymus weight/10 gm body weight” value is recorded as 23.4 ± 0.3 mg.

Take `CSCC[C@H](NC=O)C(=O)SCC(=O)[C@@]12OC(C)(C)O[C@@H]1C[C@H]1[C@@H]3CCC4=CC(=O)C=C[C@]4(C)[C@@]3(F)[C@@H](O)C[C@@]12C` [Compound No. 3, 9-Fluoro-21-[2-(formylamino)-4-methylthio-1-oxobutylthio]-11β-hydroxy-16α,17α-isopropylidenedioxypregna-1,4-diene-3,20-dione]: in the data set on edema of rat auricle, the inhibition at 1000 µM turned out to be 74%.

In the case of `CCCCC(=O)O[C@]1(C(=O)CO)[C@@H](C)C[C@H]2[C@@H]3CCC4=CC(=O)C=C[C@]4(C)[C@@]3(F)[C@@H](O)C[C@@]21C` [Betamethasone 17-valerate, betamethasone 17-valerate, reference compound], the “Dry weight of ganuloma” value in the data set on granuloma is given as 15.0 mg. Also, the inhibition at 10000 µM with granuloma worked out at 26.6%. In addition, in the data set on edema of rat auricle, the inhibition at 1000 µM came to 34%. For the same molecule, the survival at 336 h stood at 100% in data set [2] (dose 1.7 (mg/kg)), 100% in data set [2] (dose 3.3 (mg/kg)) and 50% in data set [2] (dose 5 (mg/kg)).

As to `CCCCC(=O)O[C@]1(C(=O)CSC(=O)[C@H](CCSC)NC=O)[C@@H](C)C[C@H]2[C@@H]3CCC4=CC(=O)C=C[C@]4(C)[C@@]3(F)[C@@H](O)C[C@@]21C` [Compound No. 6, 9-Fluoro-21-[2-(formylamino)-4-methylthio-1-oxobutylthio]-11β-hydroxy-16β-methyl-17-(1-oxopentyloxy)-pregna-1,4-diene-3,20-dione], in the data set with granuloma, the “Dry weight of ganuloma” value is reported as 7.4 mg and the inhibition at 10000 µM came out at 63.9%.
